From US20210214385A1, “INHIBITORS OF D-AMINO ACID OXIDASE AND USES THEREOF” (SyneuRx International (Taiwan) Corp., priority 2018, published 2021)
Values joined by “and” are separate entries in the source; they are usually repeats but may differ in a detail not shown here. Equal entries are not always repeated.

What was measured:
[1] = target: human D-amino acid oxidase (hDAAO) (Homo sapiens, UniProt P14920); experiment: In vitro measurement of human D-amino acid oxidase (hDAAO) activity, D-Serine substrate, Amplex Red fluorescence; format: biochemical
[2] = Log P, n-octanol/water partition coefficient, HPLC; format: physicochemical
Method: The sample compounds tested in the log P experiments included enriched tannic acid (prepared by the enrichment method 10 of U.S. Ser. No. 10/105,378), compounds 21, 24, 27, 46, and 56. First, n-Octanol and water was saturated with each other to achieve partition equilibrium and the two phases were separated for further use. Sample compounds were dissolved in water and n-octanol phase, respectively. Both phases were mixed by vertical rotation movement. After the water and n-octal phases reached equilibrium state, both phases were analyzed to determine the concentrations of the sample compounds for the determination of log P values. All samples were performed in a Shimadzu CBM-20A FfPLC system. The chromatographic separation was carried out on a 5 μm, Kinetex C18 100 Å LC column (100×4.6 mm). The mobile phase was 0.1% formic acid in water and acetonitrile/Methanol set as gradient. Flow rate used was 1.2 mL/min. Column was at room temperature 20±5° C.
The partition coefficient abbreviated P is calculated based on the concentration in n-octanol divided by the concentration in water. The formula of log P is shown below: […]

Chain of human D-amino acid oxidase (hDAAO) (P14920 whole entry): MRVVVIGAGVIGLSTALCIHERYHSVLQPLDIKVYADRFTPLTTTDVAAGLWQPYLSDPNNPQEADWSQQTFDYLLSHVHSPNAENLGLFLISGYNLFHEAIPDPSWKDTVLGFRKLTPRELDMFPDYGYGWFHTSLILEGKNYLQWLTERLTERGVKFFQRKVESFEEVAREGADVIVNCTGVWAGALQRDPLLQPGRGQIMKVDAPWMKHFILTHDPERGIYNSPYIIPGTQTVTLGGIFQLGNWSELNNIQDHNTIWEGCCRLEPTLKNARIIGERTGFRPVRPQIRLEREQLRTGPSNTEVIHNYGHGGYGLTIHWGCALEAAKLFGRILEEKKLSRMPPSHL

Row | IC50 [1] | logP [2] | SMILES
1 | 24.6 nM and 24 nM | 2.02 | O=C(Oc1ccccc1)c1cc(O)c(O)c(OC(=O)c2cc(O)c(O)c(OC(=O)c3cc(O)c(O)c(OC(=O)c4cc(O)c(O)c(OC(=O)c5cc(O)c(O)c(O)c5)c4)c3)c2)c1 [Compound 46, 5-((5-((5-((2,3-dihydroxy-5-(phenoxycarbonyl)phenoxy)carbonyl)-2,3-dihydroxyphenoxy)carbonyl)-2,3-dihydroxyphenoxy)carbonyl)-2,3-dihydroxyphenyl 3,4,5-trihydroxybenzoate]
2 | 17.3 nM and 17 nM |  | O=C(Oc1ccccc1)c1cc(O)c(O)c(OC(=O)c2cc(O)c(O)c(OC(=O)c3cc(O)c(O)c(OC(=O)c4cc(O)c(O)c(OC(=O)c5cc(O)c(O)c(OC(=O)c6cc(O)c(O)c(OC(=O)c7cc(O)c(O)c(O)c7)c6)c5)c4)c3)c2)c1 [Compound 48, 5-((5-((5-((5-((5-((2,3-dihydroxy-5-(phenoxycarbonyl)phenoxy)carbonyl)-2,3-dihydroxyphenoxy)carbonyl)-2,3-dihydroxyphenoxy)carbonyl)-2,3-dihydroxyphenoxy)carbonyl)-2,3-dihydroxyphenoxy)carbonyl)-2,3-dihydroxyphenyl 3,4,5-trihydroxybenzoate]
3 | 8.58 nM and 9 nM |  | O=C(Oc1cccc(OC(=O)c2cc(O)c(O)c(OC(=O)c3cc(O)c(O)c(OC(=O)c4cc(O)c(O)c(OC(=O)c5cc(O)c(O)c(OC(=O)c6cc(O)c(O)c(O)c6)c5)c4)c3)c2)c1)c1cc(O)c(O)c(OC(=O)c2cc(O)c(O)c(OC(=O)c3cc(O)c(O)c(OC(=O)c4cc(O)c(O)c(OC(=O)c5cc(O)c(O)c(O)c5)c4)c3)c2)c1 [Compound 51, 1,3-phenylene bis(3-((3-((3-((3,4-dihydroxy-5-((3,4,5-trihydroxybenzoyl)oxy)benzoyl)oxy)-4,5-dihydroxybenzoyl)oxy)-4,5-dihydroxybenzoyl)oxy)-4,5-dihydroxybenzoate)]
4 | 53.2 nM and 51 nM |  | O=C(OC[C@H]1O[C@H](OC(=O)c2cc(O)c(O)c(O)c2)[C@H](OC(=O)c2cc(O)c(O)c(O)c2)[C@@H](OC(=O)c2cc(O)c(O)c(O)c2)[C@@H]1OC(=O)c1cc(O)c(O)c(O)c1)c1cc(O)c(O)c(O)c1 [Compound 101]
5 | 54.2 nM and 53 nM |  | O=C(OC[C@H]1O[C@@H](OC(=O)c2cc(O)c(O)c(O)c2)[C@H](OC(=O)c2cc(O)c(O)c(O)c2)[C@@H](OC(=O)c2cc(O)c(O)c(O)c2)[C@@H]1OC(=O)c1cc(O)c(O)c(O)c1)c1cc(O)c(O)c(O)c1 [Compound 102]
6 | 19.4 nM and 20 nM |  | O=C(OCC1OC(OC(=O)c2cc(O)c(O)c(OC(=O)c3cc(O)c(O)c(O)c3)c2)C(OC(=O)c2cc(O)c(O)c(OC(=O)c3cc(O)c(O)c(O)c3)c2)C(OC(=O)c2cc(O)c(O)c(OC(=O)c3cc(O)c(O)c(O)c3)c2)C1OC(=O)c1cc(O)c(O)c(OC(=O)c2cc(O)c(O)c(O)c2)c1)c1cc(O)c(O)c(OC(=O)c2cc(O)c(O)c(O)c2)c1 (stereo not shown) [Compound 103]

Second part, the molecule before the results:

Row | SMILES | IC50 [1] | logP [2]
7 | O=C(OC[C@H]1O[C@H](OC(=O)c2cc(O)c(O)c(OC(=O)c3cc(O)c(O)c(O)c3)c2)[C@H](OC(=O)c2cc(O)c(O)c(OC(=O)c3cc(O)c(O)c(O)c3)c2)[C@@H](OC(=O)c2cc(O)c(O)c(OC(=O)c3cc(O)c(O)c(O)c3)c2)[C@@H]1OC(=O)c1cc(O)c(O)c(OC(=O)c2cc(O)c(O)c(O)c2)c1)c1cc(O)c(O)c(OC(=O)c2cc(O)c(O)c(O)c2)c1 [Compound 21, (2R,3R,4S,5R,6R)-6-(((3,4-dihydroxy-5-((3,4,5-trihydroxybenzoyl)oxy)benzoyl)oxy)methyl)tetrahydro-2H-pyran-2,3,4,5-tetrayl tetrakis(3,4-dihydroxy-5-((3,4,5-trihydroxybenzoyl)oxy)benzoate)] | 19.4 nM and 20 nM | 1.32
8 | O=C(OC[C@H]1O[C@H](OC(=O)c2cc(O)c(O)c(OC(=O)c3cc(O)c(O)c(OC(=O)c4cc(O)c(O)c(OC(=O)c5cc(O)c(O)c(O)c5)c4)c3)c2)[C@H](OC(=O)c2cc(O)c(O)c(OC(=O)c3cc(O)c(O)c(OC(=O)c4cc(O)c(O)c(OC(=O)c5cc(O)c(O)c(O)c5)c4)c3)c2)[C@@H](OC(=O)c2cc(O)c(O)c(OC(=O)c3cc(O)c(O)c(OC(=O)c4cc(O)c(O)c(OC(=O)c5cc(O)c(O)c(O)c5)c4)c3)c2)[C@@H]1OC(=O)c1cc(O)c(O)c(OC(=O)c2cc(O)c(O)c(OC(=O)c3cc(O)c(O)c(OC(=O)c4cc(O)c(O)c(O)c4)c3)c2)c1)c1cc(O)c(O)c(OC(=O)c2cc(O)c(O)c(OC(=O)c3cc(O)c(O)c(OC(=O)c4cc(O)c(O)c(O)c4)c3)c2)c1 [Compound 27, (2R,3R,4S,5R,6R)-6-(((3-((3,4-dihydroxy-5-((3,4-dihydroxy-5-((3,4,5-trihydroxybenzoyl)oxy)benzoyl)oxy)benzoyl)oxy)-4,5-dihydroxybenzoyl)oxy)methyl)tetrahydro-2H-pyran-2,3,4,5-tetrayl tetrakis(3-((3,4-dihydroxy-5-((3,4-dihydroxy-5-((3,4,5-trihydroxybenzoyl)oxy)benzoyl)oxy)benzoyl)oxy)-4,5-dihydroxybenzoate)] | 10.9 nM and 11 nM | 0.6
9 | O=C(OC[C@H]1O[C@@H](OC(=O)c2cc(O)c(O)c(OC(=O)c3cc(O)c(O)c(OC(=O)c4cc(O)c(O)c(O)c4)c3)c2)[C@H](OC(=O)c2cc(O)c(O)c(OC(=O)c3cc(O)c(O)c(OC(=O)c4cc(O)c(O)c(O)c4)c3)c2)[C@@H](OC(=O)c2cc(O)c(O)c(OC(=O)c3cc(O)c(O)c(OC(=O)c4cc(O)c(O)c(O)c4)c3)c2)[C@@H]1OC(=O)c1cc(O)c(O)c(OC(=O)c2cc(O)c(O)c(OC(=O)c3cc(O)c(O)c(O)c3)c2)c1)c1cc(O)c(O)c(OC(=O)c2cc(O)c(O)c(OC(=O)c3cc(O)c(O)c(O)c3)c2)c1 [Compound 37, (2S,3R,4S,5R,6R)-6-(((3-((3,4-dihydroxy-5-((3,4,5-trihydroxybenzoyl)oxy)benzoyl)oxy)-4,5-dihydroxybenzoyl)oxy)methyl)tetrahydro-2H-pyran-2,3,4,5-tetrayl tetrakis(3-((3,4-dihydroxy-5-((3,4,5-trihydroxybenzoyl)oxy)benzoyl)oxy)-4,5-dihydroxybenzoate)] | 11.8 nM and 12 nM | 
10 | O=C(Oc1cccc(OC(=O)c2cc(O)c(O)c(OC(=O)c3cc(O)c(O)c(OC(=O)c4cc(O)c(O)c(OC(=O)c5cc(O)c(O)c(OC(=O)c6cc(O)c(O)c(OC(=O)c7cc(O)c(O)c(OC(=O)c8cc(O)c(O)c(O)c8)c7)c6)c5)c4)c3)c2)c1)c1cc(O)c(O)c(OC(=O)c2cc(O)c(O)c(OC(=O)c3cc(O)c(O)c(OC(=O)c4cc(O)c(O)c(OC(=O)c5cc(O)c(O)c(OC(=O)c6cc(O)c(O)c(OC(=O)c7cc(O)c(O)c(O)c7)c6)c5)c4)c3)c2)c1 [Compound 53, 1,3-phenylene bis(3-((3-((3-((3-((3-((3,4-dihydroxy-5-((3,4,5-trihydroxybenzoyl)oxy)benzoyl)oxy)-4,5-dihydroxybenzoyl)oxy)-4,5-dihydroxybenzoyl)oxy)-4,5-dihydroxybenzoyl)oxy)-4,5-dihydroxybenzoyl)oxy)-4,5-dihydroxybenzoate)] | 5.8 nM and 6 nM | 
11 | O=C(Oc1cc(OC(=O)c2cc(O)c(O)c(OC(=O)c3cc(O)c(O)c(OC(=O)c4cc(O)c(O)c(OC(=O)c5cc(O)c(O)c(OC(=O)c6cc(O)c(O)c(O)c6)c5)c4)c3)c2)cc(OC(=O)c2cc(O)c(O)c(OC(=O)c3cc(O)c(O)c(OC(=O)c4cc(O)c(O)c(OC(=O)c5cc(O)c(O)c(OC(=O)c6cc(O)c(O)c(O)c6)c5)c4)c3)c2)c1)c1cc(O)c(O)c(OC(=O)c2cc(O)c(O)c(OC(=O)c3cc(O)c(O)c(OC(=O)c4cc(O)c(O)c(OC(=O)c5cc(O)c(O)c(O)c5)c4)c3)c2)c1 [Compound 56, benzene-1,3,5-triyl tris(3-((3-((3-((3,4-dihydroxy-5-((3,4,5-trihydroxybenzoyl)oxy)benzoyl)oxy)-4,5-dihydroxybenzoyl)oxy)-4,5-dihydroxybenzoyl)oxy)-4,5-dihydroxybenzoate)] | 5.4 nM and 5 nM | 1.92
12 | O=C(Oc1cc(OC(=O)c2cc(O)c(O)c(OC(=O)c3cc(O)c(O)c(OC(=O)c4cc(O)c(O)c(OC(=O)c5cc(O)c(O)c(OC(=O)c6cc(O)c(O)c(OC(=O)c7cc(O)c(O)c(OC(=O)c8cc(O)c(O)c(O)c8)c7)c6)c5)c4)c3)c2)cc(OC(=O)c2cc(O)c(O)c(OC(=O)c3cc(O)c(O)c(OC(=O)c4cc(O)c(O)c(OC(=O)c5cc(O)c(O)c(OC(=O)c6cc(O)c(O)c(OC(=O)c7cc(O)c(O)c(OC(=O)c8cc(O)c(O)c(O)c8)c7)c6)c5)c4)c3)c2)c1)c1cc(O)c(O)c(OC(=O)c2cc(O)c(O)c(OC(=O)c3cc(O)c(O)c(OC(=O)c4cc(O)c(O)c(OC(=O)c5cc(O)c(O)c(OC(=O)c6cc(O)c(O)c(OC(=O)c7cc(O)c(O)c(O)c7)c6)c5)c4)c3)c2)c1 [Compound 58, benzene-1,3,5-triyl tris(3-((3-((3-((3-((3-((3,4-dihydroxy-5-((3,4,5-trihydroxybenzoyl)oxy)benzoyl)oxy)-4,5-dihydroxybenzoyl)oxy)-4,5-dihydroxybenzoyl)oxy)-4,5-dihydroxybenzoyl)oxy)-4,5-dihydroxybenzoyl)oxy)-4,5-dihydroxybenzoate)] | 2.71 nM and 3 nM | 
